Values of other authors, collected in patent publication US20100069410A1 (Emisphere Technologies Inc., priority 2006, published 2010).

Settings: orally administered, Physicians' Desk Reference 1994

reported oral bioavailability: 15-30%
Compound: Nc1nc2c(ncn2COCCO)c(=O)[nH]1 [acyclovir, 9-(2-hydroxyethoxymethyl) guanine]
